The test system of the experiment is apomorphine syndrome. Put plainly: In vivo test: apomorphine syndrome inhibition. On the set-up: species or system Male Sprague-Dawley rats. To be noted: ip, rat, compound injected 60 min prior to apomorphine hydrochloride 1 mg/kg s.c. Here is the method: Male Sprague-Dawley rats (weighing 225-275 g) were used. […] The compounds were injected 60 min. prior to apomorphine hydrochloride (1 mg/kg) which was injected subcutaneously (s.c.) into the neck.
Directly after injection, the animals were placed in the cages, one in each cage. Scoring of the stereotypies were performed by two separate methods. The first scoring system was a modified version of the system introduced by Costall and Naylor (1973). The strength of the stereotype was scored on a 0-3 scale as follows:
In the second system the number of animals displaying hyperactivity caused by apomorphine were scored. Each group consisted of 6-8 animals. Saline controls were always run simultaneously. […] ED50's of the second scoring system are the doses which reduce the number of animals showing hyperactivity by 50 % over the observation period of ? min. The ED50 were calculated from log dose-response curves by the method of least squares from 4-6 dose levels with 6-8 animals per dose level.

Where [1] appears, read: dose reducing number of animals showing hyperactivity by 50 %, read-out: Reduction of hyperactivity ED50.
Setting [2] is: dose reducing strength of stereotypies (0-3 scale) by 50 % over 60 min, read-out: Reduction of stereotypies ED50.

This note sets out measurements from patent publication EP0207913A1, “Catechol carboxamides, process for their preparation, intermediates and a pharmaceutical preparation” (priority 1985, dated 1987).

Read-outs that look alike come from different tables or passages of the source.

As for `CCN1CCCC1CNC(=O)c1c(O)c(Cl)cc(Cl)c1OC` (centres unmarked) [a compound of EP 60235], the ED50 (in general, the dose that gives a 50% effect, or the effect in half of the subjects) reads like this: under setting [1], 0.11 µmol/kg; under setting [2], 2.4 µmol/kg.

For `CCN1CCCC1CNC(=O)c1cc(Br)ccc1OC` (centres unmarked) [ex 5 of US 3 342 (26)], the ED50 is, setting by setting: under setting [1], 2.5 µmol/kg; under setting [2], 6.5 µmol/kg.

In the case of `C=CCN1CCCC1CNC(=O)c1cc(Br)cc(OC)c1OC` (centres unmarked), the ED50 under setting [1] was found to be 0.02 µmol/kg and the ED50 under setting [2] turned out to be 0.12 µmol/kg.

Take `CCN1CCCC1CNC(=O)c1cc(Br)cc(OC)c1OC` (centres unmarked): the ED50 under setting [1] came out at 0.0032 µmol/kg and the 50% effective dose (ED50) under setting [2] was 0.13 µmol/kg.
